Laboratory results: patent US4791118A, “Quinolonecarboxylic acid derivatives and their preparation” (Kyorin Pharmaceutical Co., Ltd., priority 1985, dated 1988)
Converted amounts (≈) assume the structure as drawn. Where two headings read alike, the source gives them in different places.

How the values were obtained:
gram-positive bacteria = conditions: cited from earlier work
gram-negative bacteria = conditions: than that of the prior compounds (e.g. norfloxacin, ciprofloxacin); cited from earlier work
[1] = test system: Acinetobacter anitratus IID 876; experiment: MIC, aerobic bacteria; type: cell-based; conditions: Acinetobacter calcoaceticus, IID876, Gram -, 10^6 cells/ml
Source text: (§1) | Organism (10^6 cells/ml)

[2] = test system: Citrobacter freundii IID 976; experiment: MIC, aerobic bacteria; type: cell-based; conditions: IID976, Gram -, 10^6 cells/ml
Source text: as §1

E. coli ATCC 10536 = experiment: MIC, aerobic bacteria; type: cell-based; conditions: Escherichia coli, ATCC10536, Gram -, 10^6 cells/ml
Source text: as §1

[3] = test system: Escherichia coli NIHJ JC-2; experiment: MIC, aerobic bacteria; type: cell-based; conditions: NIHJJC2, Gram -, 10^6 cells/ml
Source text: as §1

[4] = test system: Klebsiella pneumoniae KY(GN)6445; experiment: MIC, aerobic bacteria; type: cell-based; conditions: Gram -, 10^6 cells/ml
Source text: as §1

[5] = test system: Morganella morganii IID 602; experiment: MIC, aerobic bacteria; type: cell-based; conditions: IID602, Gram -, 10^6 cells/ml
Source text: as §1

P. mirabilis IID 992 = experiment: MIC, aerobic bacteria; type: cell-based; conditions: Proteus mirabilis, IID992, Gram -, 10^6 cells/ml
Source text: as §1

[6] = test system: Proteus vulgaris IFO 3167; experiment: MIC, aerobic bacteria; type: cell-based; conditions: IFO3167, Gram -, 10^6 cells/ml
Source text: as §1

[7] = test system: S. aureus IID 670 (Terajima); experiment: MIC, aerobic bacteria; type: cell-based; conditions: Staphylococcus aureus, IID670, Gram +, 10^6 cells/ml
Source text: as §1

S. epidermidis IID 866 = experiment: MIC, aerobic bacteria; type: cell-based; conditions: Staphylococcus epidermidis, IID866, Gram +, 10^6 cells/ml
Source text: as §1

[8] = test system: Serratia marcescens IID 618; experiment: MIC, aerobic bacteria; type: cell-based; conditions: IID618, Gram -, 10^6 cells/ml
Source text: as §1

B. distasonis 8503 = experiment: MIC, anaerobic bacteria; type: cell-based; conditions: Parabacteroides distasonis, Gram -, 10^6 cells/ml
Source text: as §1

B. fragilis 0558 = experiment: MIC, anaerobic bacteria; type: cell-based; conditions: Bacteroides fragilis, Gram -, 10^6 cells/ml
Source text: as §1

B. fragilis 25285 = experiment: MIC, anaerobic bacteria; type: cell-based; conditions: Bacteroides fragilis, Gram -, 10^6 cells/ml
Source text: as §1

B. vulgatus KYA 29327 = experiment: MIC, anaerobic bacteria; type: cell-based; conditions: Phocaeicola vulgatus, KYA29327, Gram -, 10^6 cells/ml
Source text: as §1

[9] = test system: Bacteroides fragilis GM 7000; experiment: MIC, anaerobic bacteria; type: cell-based; conditions: GM7000, Gram -, 10^6 cells/ml
Source text: as §1

[10] = test system: Fusobacterium mortiferum 4249; experiment: MIC, anaerobic bacteria; type: cell-based; conditions: Gram -, 10^6 cells/ml
Source text: as §1

Pst. micros UPI 5464-1 = experiment: MIC, anaerobic bacteria; type: cell-based; conditions: Parvimonas micra, UPI54641, Gram +, 10^6 cells/ml
Source text: as §1

[11] = test system: Veillonella parvula KYA 10790; experiment: MIC, anaerobic bacteria; type: cell-based; conditions: KYA10790, Gram -, 10^6 cells/ml
Source text: as §1

[12] = test system: Pseudomonas aeruginosa V-1; experiment: MIC, aerobic bacteria; conditions: V1
[13] = test system: Alcaligenes faecalis 0114002; experiment: MIC, aerobic bacteria
[14] = test system: Eubacterium limosum KYA 8486; experiment: MIC, anaerobic bacteria; conditions: KYA8486
C. ramosum = experiment: MIC, anaerobic bacteria; conditions: Thomasclavelia ramosa
[15] = test system: Bacillus subtilis PCI 219; experiment: microbe, parasite or virus in culture; conditions: PCI219
[16] = test system: Staphylococcus aureus 209 P; experiment: microbe, parasite or virus in culture
S. aureus Smith = experiment: microbe, parasite or virus in culture; conditions: Staphylococcus aureus
K. pneumoniae 1-220S = experiment: microbe, parasite or virus in culture; conditions: Klebsiella pneumoniae, 1220S
[17] = test system: Salmonella enteritidis IID 604; experiment: microbe, parasite or virus in culture; conditions: Salmonella enterica
[18] = test system: Yersinia enterocolitica IID 981; experiment: microbe, parasite or virus in culture; conditions: IID981

In the case of `CCNCC1CCN(c2c(F)cc3c(=O)c(C(=O)O)cn(CC)c3c2F)C1` (centres unmarked) [CI-934], the “activity against gram-positive bacteria” value (gram-positive bacteria; prior drugs, e.g. CI-934) is listed as “relatively strong activity” and the “activity against gram-negative bacteria” value (gram-negative bacteria) is listed as “weaker activity”.
With `O=C(O)c1cn(C2CC2)c2cc(N3CCNCC3)c(F)cc2c1=O` [CPFX, ciprofloxacin, reference compound] the MIC [1] was 0.2 µg/mL (≈ 0.604 µM), the MIC [2] was 0.025 µg/mL (≈ 0.0754 µM) and the MIC (E. coli ATCC 10536) was 0.025 µg/mL (≈ 0.0754 µM). It also gave an MIC [3] of at most 6.3 ng/mL, an MIC [4] of 0.025 µg/mL (≈ 0.0754 µM) and an MIC [5] of 0.05 µg/mL (≈ 0.151 µM). For the same molecule, the MIC (P. mirabilis IID 992) was 0.025 µg/mL (≈ 0.0754 µM), the MIC [6] was 0.025 µg/mL (≈ 0.0754 µM) and the MIC [7] was 0.1 µg/mL (≈ 0.302 µM). The MIC (S. epidermidis IID 866) was 0.1 µg/mL (≈ 0.302 µM), the MIC [8] was 0.05 µg/mL (≈ 0.151 µM) and the MIC (B. distasonis 8503) was 6.25 µg/mL (≈ 18.9 µM). The MIC (B. fragilis 0558) was 3.13 µg/mL (≈ 9.45 µM), the MIC (B. fragilis 25285) was 6.25 µg/mL (≈ 18.9 µM) and the MIC (B. vulgatus KYA 29327) was 25 µg/mL (≈ 75.4 µM). It also gave an MIC [9] of 6.25 µg/mL (≈ 18.9 µM), an MIC [10] of 3.13 µg/mL (≈ 9.45 µM) and an MIC (Pst. micros UPI 5464-1) of 0.2 µg/mL (≈ 0.604 µM). For the same molecule, the MIC [11] was 0.2 µg/mL (≈ 0.604 µM), the MIC [12] was 0.05 µg/mL (≈ 0.151 µM) and the MIC [13] was 0.2 µg/mL (≈ 0.604 µM). It also gave an MIC [14] of 3.13 µg/mL (≈ 9.45 µM), an MIC (C. ramosum) of 6.25 µg/mL (≈ 18.9 µM) and an MIC [15] of 0.05 µg/mL (≈ 0.151 µM). It also gave an MIC [16] of 0.2 µg/mL (≈ 0.604 µM), an MIC (S. aureus Smith) of 0.2 µg/mL (≈ 0.604 µM) and an MIC (K. pneumoniae 1-220S) of 0.05 µg/mL (≈ 0.151 µM). It also gave an MIC [17] of 0.025 µg/mL (≈ 0.0754 µM) and an MIC [18] of 0.05 µg/mL (≈ 0.151 µM).
For `CCn1cc(C(=O)O)c(=O)c2cc(F)c(N3CCNCC3)cc21` [norfloxacin], the “activity against gram-positive bacteria” value (gram-positive bacteria; compared with gram-negative bacteria) is listed as “fairly less than that against gram-negative bacteria”.
